# In patent US4451470A, “Analgesic, antagonist, and/or anorectic 14-fluoromorphinans” (E. I. Du Pont de Nemours and Company, priority 1982, dated 1984):
# Like-named read-outs stand apart in the source and are kept apart here.
# Experiments:
# [1] = chronic oral therapy; cited from earlier work
# [2] = system: Straub tail induced by morphine sulfate in mice; test: Narcotic antagonist test (mouse anti-Straub tail test against morphine); assay type: in vivo, mouse (female CF1 S); settings: vs 30 mg/kg morphine sulfate i.p.
# Description: This property is the basis of a mouse test for narcotic antagonists.
# Female CF1 S mice (fasted 17-21 hrs.), 5 per dose, were injected orally or subcutaneously with test drug at 0.67, 2, 6, 18, 54 and 162 mg/kg or other appropriate doses in 0.20 ml 1% Methocel® per mouse. Five minutes later, 30 mg/kg of morphine sulfate in 0.20 ml 1% Methocel® per mouse was given intraperitoneally. Starting ten minutes later, the mice were observed continuously for 5 minutes for evidence of Straub tail. Prevention of Straub tail during this observation period was taken as indication of narcotic antagonist ability.
# [3] = system: Straub tail reaction in mice; test: Narcotic test (Straub tail reaction); assay type: in vivo, mouse (CF1 S female); settings: 0.4 h, read-out: EFFECT ED50 Straub-tail (Oral)
# Description: Narcotic analgesics which have only agonist activity produce in mice an erection and arching of the tail (90° or more) which is referable to spinal cord stimulation. This Straub tail reaction is not produced by other analgesics, including the narcotic antagonists.
# The method used was modified from Shemano, I., and Wendel, H., Tox. Appl. Pharm., 6, 334-9 (1964). CF1 S female mice (18-21 g), 10-20 mice per dose, were […] with log scaled doses of analgesic in 1% aqueous methylcellulose. A positive Straub tail response was recorded if a tail was erected 90° or more for 5 seconds at any time within 24 minutes after dosing. A quantal Straub tail ED50 was calculated by the moving average method [Thompson, W. R., Bact. Rev., 11, 115-145 (1947)].
# [4] = system: writhing syndrome induced by phenylquinone in mice; test: Analgesic test (phenylquinone writhing, anti-PQW); assay type: in vivo, mouse (female white mice); settings: mouse; oral; phenylquinone i.p.; read-out: EFFECT ED50 Anti-PQW (Oral)
# Description: A standard procedure for detecting and comparing the analgesic activity of compounds in this series for which there is good correlation with human efficacy is the standard phenylquinone writhing test modified from Siegmund, et al., Proc. Soc. Exp. Biol. Med., 95, 729 (1957). A test compound suspended in 1% Methocel® was given orally to fasted (17-21 hours) female white mice, 5-20 animals per double blind test. Aqueous phenylquinone (0.1% phenyl-p-benzoquinone) was injected intraperitoneally at 24 minutes later using 0.20 ml per mouse. […] The effective analgesic dose for 50% of the mice (ED50) was calculated by the moving average method of Thompson, W. R., Bact. Rev., 11, 115-145 (1947).
# [5] = system: Straub tail induced by morphine in mice; settings: mouse; cited from earlier work
# [6] = sc, read-out: EFFECT ED50 Anti-Straub Tail (s.c.)
# [7] = mouse, oral, within 24 minutes after dosing
Structure (SMILES),abstinence of opiate addicts [1],"ED50 [2, 6] [mg/kg]","ED50 [3, 7] [mg/kg]",ED50 [4] [mg/kg],"ED50 ([3]; Mus musculus, po) [mg/kg]","ED50 ([2]; oral, read-out: EFFECT ED50 Anti-Straub Tail (Oral)) [mg/kg]",prevention of Straub tail induced by morphine [5]
O=C1CC[C@@]2(O)[C@H]3Cc4ccc(O)c5c4[C@@]2(CCN3CC2CC2)[C@H]1O5 [naltrexone],remain abstinent,,,,,,
COc1ccc2c3c1O[C@H]1C4(CCC5(F)C(C2)N(CC2CC2)CCC315)OCCO4 (stereo partly shown) [Example 1],,1.7,> 135,42,,,
"CN1CC[C@]23c4c5ccc(O)c4OC2C(=O)CC[C@@]3(F)[C@H]1C5 (stereo partly shown) [Example 7, 17-Methyl-14-fluoro-3-hydroxy-4,5-epoxymorphinan-6-one]",,> 81,,2.4,18.7,,
COc1ccc2c3c1O[C@H]1C4(CCC5(F)C(C2)N(CC2CCC2)CCC315)OCCO4 (stereo partly shown) [Example 8],,> 135,> 135,11.1,,,
"COc1ccc2c3c1OC1C(=O)CC[C@@]4(F)[C@@H](C2)N(CC2CC2)CC[C@]314 (stereo partly shown) [Example 2, 17-(Cyclopropylmethyl)-4,5-epoxy-14-fluoro-3-methoxymorphinan-6-one]",,0.33,,> 135,> 135,,
"O=C1CC[C@@]2(F)[C@H]3Cc4ccc(O)c5c4[C@@]2(CCN3CC2CC2)C1O5 (stereo partly shown) [Example 3, 17-(Cyclopropylmethyl)-4,5-epoxy-14-fluoro-3-hydroxymorphinan-6-one]",,0.01,,> 135,> 135,0.09,
COc1ccc2c3c1O[C@H]1C(=O)CCC4(F)C(C2)N(C)CCC314 (stereo partly shown) [Example 11],,> 135,45,6.3,,,
"Oc1ccc2c3c1O[C@H]1[C@@H](O)CCC4(F)C(C2)N(CC2CCC2)CCC314 (stereo partly drawn) [Example 6, 17-(Cyclobutylmethyl)-4,5-epoxy-14-fluoro-morphinan-3,6-diol (α-isomer)]",,0.41,> 135,30.4,,,
COc1ccc2c3c1O[C@H]1C(=O)CCC4(F)C(C2)N(CC2CCC2)CCC314 (stereo partly shown) [Example 9],,6,> 135,27.6,,,
COc1ccc2c3c1O[C@H]1C4(CCC5(F)C(C2)N(C)CCC315)OCCO4 (stereo partly shown) [Example 10],,> 135,> 135,5,,,
C=CCN1CC[C@]23c4c5ccc(O)c4O[C@H]2[C@@H](O)C=C[C@H]3[C@H]1C5 [nalorphine],,,,,,,prevent the induction of Straub tail
C=CCN1CC[C@]23c4c5ccc(O)c4O[C@H]2C(=O)CC[C@@]3(O)[C@H]1C5 [Naloxone],,,,,,,prevent the induction of Straub tail
